Data: patent US9233957B2, “5-carbamoyl-adamantan-2-yl amide derivatives, pharmaceutically acceptable salts thereof and preparation process thereof” (SK BIOPHARMACEUTICALS CO., LTD., priority 2011, dated 2016)

Columns and labels:
Human 11b-HSD1 = biological target: T1, Human 11b-HSD1 (Homo sapiens, UniProt P28845); test: Inhibition of cortisone-to-cortisol conversion in CHO-K1 cells over-expressing human 11b-HSD1 (HTRF cortisol assay); assay type: cell-based; settings: CHO-K1 cells over-expressing human 11b-HSD1, 160 nM cortisone, 3 hours, 37° C.
T1 construct: expressed in transfected cells
Text: (§1) cDNA (human: Accession No. U12978.2; mouse: Accession No. NM_008288.2) coding the full-length amino acid sequence of 11β-HSD1 in a human and a mouse was incorporated into pMSCVpuro (from Clontech. Co. Ltd.), a vector of expressing a mammalian cell for the production of a retrovirus, and the resulting product was introduced into a GP2-293 cell (from Clontech Co. Ltd.), a retrovirus packing cell line together with pVSV-G vector (from Clontech Co. Ltd.) by using a Lipotamine plus reagent (from Invitrogen Co. Ltd.) in accordance with the method set forth in the appendix (by using HTRF cortisol assay kit from Cisbio assays Co., Ltd., catalog No. 62CO2PEB) and stabilized for 48 hours. Thereafter, viruses being obtained from those cells were used to infect CHO-K1 cell (from Korean Cell Line Bank, KCLB No. 10061) and in 24 hours, the cells were treated with 10 μg/ml pumycin (from Sigma Co. Ltd.) for two weeks to produce a stabilized cell system wherein each 11β-HSD1 in humans or in mice was over-expressed. When the cells being maintained, 5 μg/ml of puromycin was put into the medium and used (RPMI (Gibco), 37° C.). • Reference material: The EMBO Journal (2008) 27, 642-653
(§2) The obtained cells with 11b-HSD1 in a human and a mouse being over-expressed were sub-cultured in a 96-well plate with a cell number being 3×10^4 cells per well and stabilized for 24 hours [RPMI (Gibco), at 37° C., as being used in 5 days after thawing]. After a medium as diluted with DMSO including 160 nM of cortisone (from Sigma Co. Ltd.) and a test compound at a different concentration was put into each well in an amount of 200 ul, the well was cultured in a cell cultivator at 37° C. for 3 hours. 10 ul of the cultured solution was put into a 384 well plate and the amount of cortisol as generated was measured using a cortisol kit (from Cisbio international Co. Ltd, HTRF assay) in accordance with the method set forth in the appended manual.
(§3) As a control group, 160 nM of cortisone and 1% of DMSO were put into a corresponding well. The ground value was obtained from a well including only 160 nM of cortisone and 1% of DMSO without cells just like the control group. The calculation for a % inhibition level was made following the manual as appended. • Reference material: The Journal of Steroid Biochemistry and Molecular Biology, Volume 104, Issues 3-5, May 2007, Pages 123-129 • Bioorganic & Medicinal Chemistry Letters Volume 19, Issue 10, 15 May 2009, Pages 2674-2678
(§4) Like the analyzing method as stated above, the efficacy of inhibiting 11b-HSD1 was calculated as IC50 and the results are shown in Table 1: […]

Mouse 11b-HSD1 = biological target: T2, Mouse 11b-HSD1 (Mus musculus, UniProt P50172); test: Inhibition of cortisone-to-cortisol conversion in CHO-K1 cells over-expressing mouse 11b-HSD1 (HTRF cortisol assay); assay type: cell-based; settings: CHO-K1 cells over-expressing mouse 11b-HSD1, 160 nM cortisone, 3 hours, 37° C.
T2 construct: expressed in transfected cells
Text: as §1, §2, §3, §4

T2 sequence (P50172 whole entry): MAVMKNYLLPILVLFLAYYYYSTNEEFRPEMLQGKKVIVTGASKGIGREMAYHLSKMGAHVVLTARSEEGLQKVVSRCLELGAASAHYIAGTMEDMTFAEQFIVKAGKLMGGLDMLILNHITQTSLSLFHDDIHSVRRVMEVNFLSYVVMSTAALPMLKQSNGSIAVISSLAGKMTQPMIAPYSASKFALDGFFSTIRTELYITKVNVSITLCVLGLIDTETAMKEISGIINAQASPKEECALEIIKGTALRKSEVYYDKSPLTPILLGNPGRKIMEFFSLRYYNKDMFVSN
T1 sequence (P28845 whole entry): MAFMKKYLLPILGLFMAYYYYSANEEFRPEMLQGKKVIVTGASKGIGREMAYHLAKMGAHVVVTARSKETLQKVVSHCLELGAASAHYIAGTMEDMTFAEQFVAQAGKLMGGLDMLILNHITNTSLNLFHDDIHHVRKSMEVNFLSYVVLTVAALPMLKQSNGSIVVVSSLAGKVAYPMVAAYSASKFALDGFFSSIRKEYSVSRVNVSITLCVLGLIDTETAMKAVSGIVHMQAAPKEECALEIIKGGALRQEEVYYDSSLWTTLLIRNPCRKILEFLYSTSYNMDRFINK

IC50 (Human 11b-HSD1) [nM] | IC50 (Mouse 11b-HSD1) [nM] | Structure (SMILES)
< 100 | > 500 | NC(=O)[C@]12CC3CC(C1)[C@@H](NC(=O)c1ccc(-c4ccc([N+](=O)[O-])cc4)o1)C(C3)C2 [Example 3, N-(5-carbamoyl-2-adamantyl)-5-(4-nitrophenyl)furan-2-carboxamide]
< 100 | 100 to 500 | Cc1ccc(-c2ccc(C(=O)N[C@H]3C4CC5CC3C[C@](C(N)=O)(C5)C4)o2)cc1 [Example 4, N-(5-carbamoyl-2-adamantyl)-5-(4-methylphenyl)furan-2-carboxamide]
> 500 | > 500 | Cc1cccc(-c2cc(C(=O)N[C@H]3C4CC5CC3C[C@](C(N)=O)(C5)C4)no2)c1 [Example 6, N-(5-carbamoyl-2-adamantyl)-5-(3-methylphenyl)-1,2-oxazole-3-carboxamide]
> 500 | > 500 | COc1ccccc1-c1cc(C(=O)N[C@H]2C3CC4CC2C[C@](C(N)=O)(C4)C3)no1 [Example 7, N-(5-carbamoyl-2-adamantyl)-5-(2-methoxyphenyl)-1,2-oxazole-3-carboxamide]
100 to 500 | > 500 | Cc1ccccc1-c1cc(C(=O)N[C@H]2C3CC4CC2C[C@](C(N)=O)(C4)C3)no1 [Example 8, N-(5-carbamoyl-2-adamantyl)-5-(2-methylphenyl)-1,2-oxazole-3-carboxamide]
> 500 | > 500 | NC(=O)[C@]12CC3CC(C1)[C@@H](NC(=O)c1cc(-c4cccc(F)c4)on1)C(C3)C2 [Example 12, N-(5-carbamoyl-2-adamantyl)-5-(3-fluorophenyl)-1,2-oxazole-3-carboxamide]
100 to 500 | > 500 | NC(=O)[C@]12CC3CC(C1)[C@@H](NC(=O)c1cc(-c4ccc(Cl)cc4)on1)C(C3)C2 [Example 13, N-(5-carbamoyl-2-adamantyl)-5-(4-chlorophenyl)-1,2-oxazole-3-carboxamide]
< 100 | 100 to 500 | Cc1cccc(C(=O)N[C@H]2C3CC4CC2C[C@](C(N)=O)(C4)C3)n1 [Example 15, N-(5-carbamoyl-2-adamantyl)-6-methylpyridine-2-carboxamide]
> 500 | > 500 | NC(=O)[C@]12CC3CC(C1)[C@@H](NC(=O)c1ccccn1)C(C3)C2 [Example 16, N-(5-carbamoyl-2-adamantyl)pyridine-2-carboxamide]
> 500 | > 500 | Cn1cccc1C(=O)N[C@H]1C2CC3CC1C[C@](C(N)=O)(C3)C2 [Example 17, N-(5-carbamoyl-2-adamantyl)-1-methylpyrrole-2-carboxamide]
< 100 | < 100 | NC(=O)[C@]12CC3CC(C1)[C@@H](NC(=O)c1ccc(-c4cccs4)s1)C(C3)C2 [Example 21, N-(5-carbamoyl-2-adamantyl)-5-thiophen-2-yl-thiophene-2-carboxamide]
100 to 500 | > 500 | NC(=O)[C@]12CC3CC(C1)[C@@H](NC(=O)c1cccs1)C(C3)C2 [Example 22, N-(5-carbamoyl-2-adamantyl)thiophene-2-carboxamide]
100 to 500 | 100 to 500 | Cc1csc(C(=O)N[C@H]2C3CC4CC2C[C@](C(N)=O)(C4)C3)c1 [Example 23, N-(5-carbamoyl-2-adamantyl)-4-methylthiophene-2-carboxamide]
< 100 | 100 to 500 | Cc1ccc(C(=O)N[C@H]2C3CC4CC2C[C@](C(N)=O)(C4)C3)s1 [Example 24, N-(5-carbamoyl-2-adamantyl)-5-methylthiophene-2-carboxamide]
< 100 | < 100 | NC(=O)[C@]12CC3CC(C1)[C@@H](NC(=O)c1ccc(-c4ccc(F)cc4)o1)C(C3)C2 [Example 25, N-(5-carbamoyl-2-adamantyl)-5-(4-fluorophenyl)furan-2-carboxamide]
< 100 | 100 to 500 | COc1ccc(-c2ccc(C(=O)N[C@H]3C4CC5CC3C[C@](C(N)=O)(C5)C4)o2)cc1 [Example 28, N-(5-carbamoyl-2-adamantyl)-5-(4-methoxyphenyl)furan-2-carboxamide]
< 100 | 100 to 500 | NC(=O)[C@]12CC3CC(C1)[C@@H](NC(=O)c1ccc(-c4ccc(F)c(F)c4)o1)C(C3)C2 [Example 29, N-(5-carbamoyl-2-adamantyl)-5-(3,4-difluorophenyl)furan-2-carboxamide]
< 100 | 100 to 500 | NC(=O)[C@]12CC3CC(C1)[C@@H](NC(=O)c1ccc(-c4ccc(Cl)c(Cl)c4)o1)C(C3)C2 [Example 31, N-(5-carbamoyl-2-adamantyl)-5-(3,4-dichlorophenyl)furan-2-carboxamide]
< 100 | 100 to 500 | NC(=O)[C@]12CC3CC(C1)[C@@H](NC(=O)c1ccc(-c4cc(Cl)cc(Cl)c4)o1)C(C3)C2 [Example 32, N-(5-carbamoyl-2-adamantyl)-5-(3,5-dichlorophenyl)furan-2-carboxamide]
< 100 | < 100 | Cn1c(C(=O)N[C@H]2C3CC4CC2C[C@](C(N)=O)(C4)C3)ccc1-c1cccc(Cl)c1 [Example 33, N-(5-carbamoyl-2-adamantyl)-5-(3-chlorophenyl)-1-methylpyrrole-2-carboxamide]
< 100 | 100 to 500 | Cn1c(C(=O)N[C@H]2C3CC4CC2C[C@](C(N)=O)(C4)C3)ccc1-c1ccc(Cl)cc1 [Example 35, N-(5-carbamoyl-2-adamantyl)-5-(4-chlorophenyl)-1-methylpyrrole-2-carboxamide]
< 100 | < 100 | Cn1c(C(=O)N[C@H]2C3CC4CC2C[C@](C(N)=O)(C4)C3)ccc1-c1ccc(F)cc1 [Example 36, N-(5-carbamoyl-2-adamantyl)-5-(4-fluorophenyl)-1-methylpyrrole-2-carboxamide]
< 100 | 100 to 500 | Cn1c(C(=O)N[C@H]2C3CC4CC2C[C@](C(N)=O)(C4)C3)ccc1-c1ccc(C(F)(F)F)cc1 [Example 37, N-(5-carbamoyl-2-adamantyl)-1-methyl-5-[4-(trifluoromethyl)phenyl]pyrrole-2-carboxamide]
< 100 | < 100 | NC(=O)[C@]12CC3CC(C1)[C@@H](NC(=O)c1ccc(-c4cccc(Cl)c4)s1)C(C3)C2 [Example 42, N-(5-carbamoyl-2-adamantyl)-5-(3-chlorophenyl)thiophene-2-carboxamide]
< 100 | < 100 | NC(=O)[C@]12CC3CC(C1)[C@@H](NC(=O)c1ccc(-c4ccccc4F)s1)C(C3)C2 [Example 44, N-(5-carbamoyl-2-adamantyl)-5-(2-fluorophenyl)thiophene-2-carboxamide]
< 100 | 100 to 500 | COc1cccc(C(=O)N[C@H]2C3CC4CC2C[C@](C(N)=O)(C4)C3)n1 [Example 45, N-(5-carbamoyl-2-adamantyl)-6-methoxypyridine-2-carboxamide]
< 100 | < 100 | CCCOc1cccc(C(=O)N[C@H]2C3CC4CC2C[C@](C(N)=O)(C4)C3)n1 [Example 46, N-(5-carbamoyl-2-adamantyl)-6-propoxypyridine-2-carboxamide]
< 100 | 100 to 500 | NC(=O)[C@]12CC3CC(C1)[C@@H](NC(=O)c1cccc(OCc4ccccc4)n1)C(C3)C2 [Example 47, N-(5-carbamoyl-2-adamantyl)-6-phenylmethoxypyridine-2-carboxamide]
< 100 | – | Cc1noc(C)c1COc1cccc(C(=O)N[C@H]2C3CC4CC2C[C@](C(N)=O)(C4)C3)n1 [Example 48, N-(5-carbamoyl-2-adamantyl)-6-[(3,5-dimethyl-1,2-oxazol-4-yl)methoxy]pyridine-2-carboxamide]
< 100 | 100 to 500 | CCCOc1cccc2ccc(C(=O)N[C@H]3C4CC5CC3C[C@](C(N)=O)(C5)C4)nc12 [Example 49, N-(5-carbamoyl-2-adamantyl)-8-propoxyquinoline-2-carboxamide]

Structure (SMILES) | IC50 (Human 11b-HSD1) [nM] | IC50 (Mouse 11b-HSD1) [nM]
NC(=O)[C@]12CC3CC(C1)[C@@H](NC(=O)c1ccc(-c4ccc(Cl)cc4)s1)C(C3)C2 [Example 41, N-(5-carbamoyl-2-adamantyl)-5-(4-chlorophenyl)thiophene-2-carboxamide] | < 100 | 100 to 500
